Measurements reported in PubChem BioAssay AID1963863 (Molecular Pharmacology Branch, DTP, NCI, 2024).

Test system: 931267-113-T-J1-PDC KRAS spheroid with HUVEC/MSC, viability
Test: Anticancer human tumor 931267-113-T-J1-PDC patient-derived colon adenocarcinoma cell line growth inhibition [KRAS2]
Details: for IC50: curve of first compound; for viability, T/C: stronger effect = lower value
In short: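 Combination screen of spheroid viability in tumor-cell co-cultures with endothelial (HUVEC) and mesenchymal stem cell stroma. Each agent was tested in half-log dilutions, topping at clinical Cmax or at 10 microM without a known Cmax.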

[1] = second compound 0.1 µM, first compound 0.0316 µM
[2] = second compound 0.1 µM, first compound 0.1 µM
[3] = second compound 0.316 µM, first compound 0.0316 µM
[4] = second compound 0.316 µM, first compound 0.1 µM
[5] = second compound 1 µM, first compound 0.0316 µM
[6] = second compound 1 µM, first compound 0.1 µM
[7] = second compound 3.16 µM, first compound 0.0316 µM
[8] = second compound 3.16 µM, first compound 0.1 µM
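Further: compound exposure lasted 7 days before the readout.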
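Wherever viability, T/C is given: 100% = DMSO vehicle control viability.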

CC(C)n1nc(-c2ccc3oc(N)nc3c2)c2c(N)ncnc21 + C=CC(=O)N1CCN(c2nc(OCC3CCCN3C)nc3c2CCN(c2cccc4cccc(C)c24)C3)CC1CC#N
IC50 (second compound 0.0316 µM): 7.3 nM
IC50 (second compound 0.1 µM): 6.23 nM
IC50 (second compound 0.316 µM): 7.32 nM
IC50 (second compound 1 µM): 5.74 nM
IC50 (second compound 3.16 µM): < 0.316 nM
viability, T/C (second compound 0.0316 µM, first compound 0.000316 µM): 91.9%
viability, T/C (second compound 0.0316 µM, first compound 0.001 µM): 89.1%
viability, T/C (second compound 0.0316 µM, first compound 0.00316 µM): 71.1%
viability, T/C (second compound 0.0316 µM, first compound 0.01 µM): 41.9%
viability, T/C (second compound 0.0316 µM, first compound 0.0316 µM): 26.6%
viability, T/C (second compound 0.0316 µM, first compound 0.1 µM): 21.8%
viability, T/C (second compound 0.1 µM, first compound 0.000316 µM): 111%
viability, T/C (second compound 0.1 µM, first compound 0.001 µM): 91.8%
viability, T/C (second compound 0.1 µM, first compound 0.00316 µM): 65.2%
viability, T/C (second compound 0.1 µM, first compound 0.01 µM): 40.7%
viability, T/C [1]: 22.6%
viability, T/C [2]: 19.9%
viability, T/C (second compound 0.316 µM, first compound 0.000316 µM): 89.6%
viability, T/C (second compound 0.316 µM, first compound 0.001 µM): 95.9%
viability, T/C (second compound 0.316 µM, first compound 0.00316 µM): 67.1%
viability, T/C (second compound 0.316 µM, first compound 0.01 µM): 44.6%
viability, T/C [3]: 22.7%
viability, T/C [4]: 18.3%
viability, T/C (second compound 1 µM, first compound 0.000316 µM): 106%
viability, T/C (second compound 1 µM, first compound 0.001 µM): 78.2%
viability, T/C (second compound 1 µM, first compound 0.00316 µM): 62.9%
viability, T/C (second compound 1 µM, first compound 0.01 µM): 41.6%
viability, T/C [5]: 24.8%
viability, T/C [6]: 21.6%
viability, T/C (second compound 3.16 µM, first compound 0.000316 µM): 18.4%
viability, T/C (second compound 3.16 µM, first compound 0.001 µM): 0.63%
viability, T/C (second compound 3.16 µM, first compound 0.00316 µM): 13.2%
viability, T/C (second compound 3.16 µM, first compound 0.01 µM): 0.24%
viability, T/C [7]: 0.27%
viability, T/C [8]: 1.47%

COC(=O)c1ccc2c(C(=Nc3ccc(N(C)C(=O)CN4CCN(C)CC4)cc3)c3ccccc3)c(O)[nH]c2c1 + C=CC(=O)N1CCN(c2nc(=O)n(-c3c(C)ccnc3C(C)C)c3nc(-c4c(O)cccc4F)c(F)cc23)C(C)C1
IC50 (second compound 0.1 µM): 1340 nM
IC50 (second compound 0.316 µM): 1080 nM
IC50 (second compound 1 µM): 1050 nM
IC50 (second compound 3.16 µM): 922 nM
IC50 (second compound 10 µM): 984 nM
viability, T/C [1]: 107%
viability, T/C [2]: 100%
viability, T/C (second compound 0.1 µM, first compound 0.316 µM): 90.5%
viability, T/C (second compound 0.1 µM, first compound 1 µM): 67%
viability, T/C (second compound 0.1 µM, first compound 3.16 µM): 0.52%
viability, T/C (second compound 0.1 µM, first compound 10 µM): 0.48%
viability, T/C [3]: 120%
viability, T/C [4]: 103%
viability, T/C (second compound 0.316 µM, first compound 0.316 µM): 84.8%
viability, T/C (second compound 0.316 µM, first compound 1 µM): 63.4%
viability, T/C (second compound 0.316 µM, first compound 3.16 µM): 0.81%
viability, T/C (second compound 0.316 µM, first compound 10 µM): 0.29%
viability, T/C [5]: 129%
viability, T/C [6]: 116%
viability, T/C (second compound 1 µM, first compound 0.316 µM): 82.8%
viability, T/C (second compound 1 µM, first compound 1 µM): 65.8%
viability, T/C (second compound 1 µM, first compound 3.16 µM): 0.56%
viability, T/C (second compound 1 µM, first compound 10 µM): 0.21%
viability, T/C [7]: 121%
viability, T/C [8]: 134%
viability, T/C (second compound 3.16 µM, first compound 0.316 µM): 82.8%
viability, T/C (second compound 3.16 µM, first compound 1 µM): 56.4%
viability, T/C (second compound 3.16 µM, first compound 3.16 µM): 0.33%
viability, T/C (second compound 3.16 µM, first compound 10 µM): 0.22%
viability, T/C (second compound 10 µM, first compound 0.0316 µM): 119%
viability, T/C (second compound 10 µM, first compound 0.1 µM): 103%
viability, T/C (second compound 10 µM, first compound 0.316 µM): 103%
viability, T/C (second compound 10 µM, first compound 1 µM): 50%
viability, T/C (second compound 10 µM, first compound 3.16 µM): 0.49%
viability, T/C (second compound 10 µM, first compound 10 µM): 0.31%
